Experimental data published in US9982265B2, “Inhibition of Bruton's tyrosine kinase (Btk) in the lung to treat severe lung inflammation and lung injury” (BOARD OF REGENTS, THE UNIVERSITY OF TEXAS SYSTEM, priority 2014, dated 2018).

Legend:
[1] = tested on: mice with anti-KC:KC IC ALI; assay: anti-KC:KC IC model of ALI, Lung Injury Score; assay type: in vivo; conditions: Table 4; mice immunized with KC then given KC; score 0 to 2; means ± SD, 3 animals per group
Description: Anti-KC:KC immune complexes were prepared according to the protocol routinely used in our laboratory (28). Some mice received Btk specific siRNA intranasally. In other experiments the animals were treated i.n. with siRNA specific for Btk (see SEQ ID NOs:18-25) or MMP-9 (Invitrogen), both conjugated (T3™-MAX Conjugation Kit (Bioo Scientific Corporation, Austin, Tex.) to F(ab′)2 fragments of anti-mouse neutrophil antibody Ly-6G1A8). F(ab′)2 fragments alone or conjugated to control siRNA (SEQ ID NO's 26 and 27) (Invitrogen) served as controls of the treatment. Two or fourteen hours after i.n. administration of either immune complexes or saline, the animals were euthanized and samples collected for further evaluation. To study role of neutrophil FcγRIII receptors neutrophils were first depleted by i.p. injection of vinblastine (31) followed by adoptive transfer of cells deficient in FcγRIII receptors prepared as described below. […] Lung dysfunction was assessed by analysis of pulmonary histopathology.
Pulmonary Histopathology: Lungs were fixed in ExCellPlus (AMTS, Lodi, Calif.), embedded in paraffin, and sectioned at 5 μm. […] The images of stained sections were evaluated for the presence of alveolar exudate, infiltration of inflammatory cells, and interstitial thickening. Lung Injury Score (LIS) was assessed as described earlier (28). Most images were assessed at magnification of over 400×. […] At the minimum twenty sections from each group of mice were evaluated and 4 investigators participated in the analysis of 50 or more fields per group. According to recommendation of “An Official American Thoracic Society Workshop Report: Features and Measurements of Experimental Acute Lung Injury in Animals” (Am J Respir Cell Mol Biol 44 725-738, 2011) more than 20 high power fields were independently scored (as described above) and at least 50% of each field was occupied by lung alveoli. […]

[2] = tested on: ApoE−/− mice fed Western Diet and exposed to SHS; assay: Second hand smoke-induced emphysema/COPD model, PicroSirius Red and Hart's Elastin lung staining; assay type: in vivo; conditions: i.v. twice a week for 4 weeks, FIG. 18, 19
Description: Second Hand Smoke (SHS)-Induced COPD: Chronic exposure of mice to SHS induces abnormal pulmonary inflammation, airway remodeling and airspace enlargement due to destruction of alveolar walls which are characteristic of COPD (Pappas et al., supra). The present studies used both wild-type (WT) mice exposed to SHS and apolipoprotein E-(ApoE^−/−)-genetically deficient mice to study comorbidities of COPD. The targeted deletion of the apoE gene leads to severe hypercholesterolemia and spontaneous atherosclerosis. Lesions of ApoE^−/− mice resemble their human counterparts and develop over time from initial fatty streaks to complex lesions. (A high-fat, high-cholesterol diet can strongly accelerate the process.) Exposure of ApoE^−/− mice to SHS triggers characteristic decline of lung function that is seen in patients with COPD (Arunachalam, G. et al., supra). ApoE^−/− mice were fed a regular diet (control) and a high fat/cholesterol (1%) diet to shorten the time required for the development of atherosclerosis.
WT and ApoE^−/− diet groups were divided into equal subgroups: control and SHS. SHS groups were exposed to cigarette smoke for 4 h per day, 5 days a week, for up to 20 weeks. A Teague TE-10 microprocessor-controlled smoking machine was used to produce side stream mixed with a smaller amount of main stream smoke. […] TSP values were measured twice a week or as necessary. […]

Row | SMILES | Lung Injury Score: Edema fluid [1] | Lung Injury Score: Inflammatory infiltration [1] | Lung Injury Score: Thickening of alveolar septa [1] | effect on symptoms of emphysema/COPD [2]
1 | CC[C@]1(O)C[C@@H]2CN(CCc3c([nH]c4ccccc34)[C@@](C(=O)OC)(c3cc4c(cc3OC)N(C)[C@H]3[C@@](O)(C(=O)OC)[C@H](OC(C)=O)[C@]5(CC)C=CCN6CC[C@]43[C@@H]65)C2)C1 [vinblastine] | 0.033 ± 0.029 | 0.167 ± 0.029 | 0.133 ± 0.153 | –
2 | C=CC(=O)N1CCC[C@@H](n2nc(-c3ccc(Oc4ccccc4)cc3)c3c(N)ncnc32)C1 [PCI-32765, 1-[(3R)-3-[4-amino-3-(4-phenoxyphenyl)-pyrazolo[3,4-d]pyrimidin-1-yl]piperidin-1-yl]prop-2-en-1-one] | – | – | – | dramatic protective effect
